Results on six compounds are retold here after EPA's ToxRefDB 2.

Series [1] deals with rat. Conditions: Subchronic oral toxicity in rodents, sprague dawley, Water, dose end: 90 day, group: systemic.
The test system of series [2] is mouse. Conditions: Combined chronic toxicity/carcinogenicity; b6c3f1; Oral; Gavage/Intubation; dose end: 52 week; group: systemic; systemic / organ weight / liver / absolute + systemic / organ weight / liver / relative to body weight + systemic / pathology microscopic / ….
For series [3], the system named is rat. Conditions: Subchronic oral toxicity in rodents, other, Feed, dose end: 90 day, group: systemic, systemic / pathology gross / kidney / enlarged + systemic / pathology gross / liver / enlarged + systemic / urinalysis / glucose / glucose….
A further series concerns dog. Conditions: Combined chronic toxicity/carcinogenicity; beagle; Oral; Feed; dose end: 104 week; group: systemic; systemic / clinical chemistry / alanine aminotransferase (alt/sgpt) / alanine aminotransferase (alt/sgpt) + systemic / clinical chemistry / ….
Series [4] relates to rabbit. The note with it: Prenatal developmental toxicity study, new zealand white, Oral, Gavage/Intubation, dose end: 19 GD.
Series [5] concerns rat. The note with it: Subchronic oral toxicity in rodents, fischer, Gavage/Intubation, dose end: 14 week, group: systemic.
Series [6] concerns mouse. Conditions: Subchronic oral toxicity in rodents, b6c3f1, Gavage/Intubation, dose end: 14 week, group: systemic, systemic / hematology / erythrocyte (rbc) count differential / erythrocyte (rbc) + systemic / hematology / hematocrit (hct) / hematocrit (….
For series [7], the system named is rat. Conditions: Combined chronic toxicity/carcinogenicity; sprague dawley; Inhalation; Whole-Body; dose end: 24 month; group: systemic; systemic / clinical chemistry / alanine aminotransferase (alt/sgpt) / alanine aminotransferase (alt/sgpt) + systemic / clinical chemistry / ….
The subject of series [8] is rat. Conditions: Subchronic oral toxicity in rodents; sprague dawley; Inhalation; Whole-Body; dose end: 3 month; group: systemic; systemic / clinical chemistry / gamma glutamyl transferase (ggt) / gamma glutamyl transferase (ggt) + systemic / clinical chemistry / ….
Series [9] has as its system primate. Conditions: Sub-acute repeat dose toxicity; Oral; Gavage/Intubation; dose end: 5 day; group: systemic; systemic / clinical chemistry / bilirubin / total bilirubin + systemic / in life observation / clinical signs / abnormal feces + systemic / ….
Series [10] has as its system rat. The note with it: Sub-acute repeat dose toxicity; sprague dawley; Oral; Gavage/Intubation; dose end: 14 day; group: systemic; systemic / hematology / erythrocyte (rbc) count differential / erythrocyte (rbc) + systemic / hematology / fibrinogen / fibrinogen + ….
In series [11] the test system is primate. The note with it: Sub-acute repeat dose toxicity; Oral; Gavage/Intubation; dose end: 9 day; group: systemic; systemic / clinical chemistry / [other] / [other] + systemic / clinical chemistry / alanine aminotransferase (alt/sgpt) / alanine ….
The subject of series [12] is rat. Conditions: Sub-acute repeat dose toxicity; sprague dawley; Oral; Gavage/Intubation; dose end: 28 day; group: systemic; systemic / in life observation / body weight / body weight + systemic / in life observation / clinical signs / feces, discoloration + ….
The subject of series [13] is primate. Conditions: Sub-acute repeat dose toxicity, Oral, Gavage/Intubation, dose end: 30 day, group: systemic.
Series [14] has as its system rat. The note with it: Subchronic inhalation toxicity, sprague dawley, Whole-Body, dose end: 13 week, group: systemic, systemic / hematology / erythrocyte (rbc) count differential / erythrocyte (rbc) + systemic / hematology / hemoglobin (hgb) / hemoglobin (….
The test system of series [15] is rat. The note with it: Subchronic oral toxicity in rodents, fischer, Gavage/Intubation, dose end: 13 week, group: systemic.
The test system of series [16] is rat. Conditions: Combined chronic toxicity/carcinogenicity; fischer; Inhalation; Whole-Body; dose end: 103 week; group: systemic; systemic / pathology microscopic / larynx / metaplasia + systemic / pathology microscopic / nose / pigmentation + systemic / pathology ….
Series [17] deals with rabbit. The note with it: Prenatal developmental toxicity study, new zealand white, Oral, Gavage/Intubation, dose end: 18 GD.
The test system of series [18] is mouse. Conditions: Combined chronic toxicity/carcinogenicity, b6c3f1, Inhalation, Whole-Body, dose end: 103 week, group: systemic.
For series [19], the system named is mouse. Conditions: Subchronic oral toxicity in rodents, b6c3f1, Gavage/Intubation, dose end: 13 week, group: systemic.
[20] abbreviates: systemic / clinical chemistry / alanine aminotransferase (alt/sgpt) / alanine aminotransferase (alt/sgpt) + systemic / clinical chemistry / ….
The mark [21] stands for this setting: systemic / clinical chemistry / protein / protein.
[22] abbreviates: group: developmental, developmental / developmental malformation / bone / supernumerary + systemic / in life observation / body weight / fetal weight.
[23] abbreviates: group: maternal, systemic / in life observation / body weight / body weight gain.
Where [24] appears, read: systemic / hematology / hematocrit (hct) / hematocrit (hct) + systemic / pathology microscopic / nose / degeneration + systemic / clinical ….
Setting [25] is: systemic / in life observation / mortality / mortality + systemic / clinical chemistry / [other] / [other] + systemic / hematology / ….
The mark [26] stands for this setting: systemic / pathology gross / full gross necropsy / hemorrhage + systemic / pathology gross / full gross necropsy / lesion(s) (nos).
The mark [27] stands for this setting: systemic / in life observation / body weight / body weight gain + systemic / in life observation / clinical signs / fur (altered appearance….
Setting [28] is: group: developmental, developmental / developmental malformation / bone / malformation, total.
[29] abbreviates: group: maternal, systemic / in life observation / body weight / body weight gain + systemic / in life observation / clinical signs / defecation (diarrhea) + ….
The mark [30] stands for this setting: systemic / pathology microscopic / nose / pigmentation + systemic / pathology microscopic / trachea / pigmentation.
Setting [31] is: systemic / organ weight / kidney / relative to brain weight + systemic / organ weight / liver / relative to brain weight.

One may read the LOAEL as the lowest tested level that showed an adverse finding. Usually NOAEL stands for the highest dose or exposure tested at which no adverse effect was seen. On to `O=C(O)C(Cl)Cl` [Dichloroacetic acid], for which, in the series on rat [1] (setting [20]), the LOAEL was more than 345 mg/kg/day and the NOAEL is not below 345 mg/kg/day. In the series with rat [1] (setting [21]), the LEL was determined as 3.9 mg/kg/day and the NEL was less than 3.9 mg/kg/day. In the series with mouse [2], the LEL is 133 mg/kg/day, the LOAEL was more than 267 mg/kg/day, the NEL is less than 133 mg/kg/day and the NOAEL was not below 267 mg/kg/day.

Turning to `COc1cc(Cl)c(OC)cc1Cl` [Chloroneb], in the series with rat [3], the LEL came out at 375 mg/kg/day, the LOAEL was found to be 375 mg/kg/day, the NEL came out at 25 mg/kg/day and the NOAEL worked out at 25 mg/kg/day. In addition, in the series on dog, the LEL amounted to 62.5 mg/kg/day, the LOAEL was 62.5 mg/kg/day, the NEL came to 12.5 mg/kg/day and the NOAEL was 12.5 mg/kg/day. In addition, in the series with rabbit [4] (setting [22]), the LEL turned out to be 1000 mg/kg/day, the LOAEL turned out to be 1000 mg/kg/day, the NEL is 100 mg/kg/day and the NOAEL was found to be 100 mg/kg/day. In addition, in the series on rabbit [4] (setting [23]), the LEL came out at 1000 mg/kg/day, the LOAEL is 1000 mg/kg/day, the NEL was 100 mg/kg/day and the NOAEL was 100 mg/kg/day.

On to `CCCC=NO` [Butanal oxime], for which, in the series on rat [5] (setting [20]), the LOAEL is more than 600 mg/kg/day and the NOAEL is not below 600 mg/kg/day. Besides, in the series on rat [5] (setting [24]), the LEL worked out at 25 mg/kg/day and the NEL is less than 25 mg/kg/day. In the series with mouse [6], the LEL was found to be 25 mg/kg/day, the LOAEL was more than 600 mg/kg/day, the NEL is less than 25 mg/kg/day and the NOAEL is not below 600 mg/kg/day.

As to `C=CN1CCCC1=O` [N-Vinyl-2-pyrrolidone], in the series on rat [7], the LEL amounted to 5 ppm, the LOAEL is more than 20 ppm, the NEL was less than 5 ppm and the NOAEL is not below 20 ppm. In the series with rat [8], the LEL turned out to be 45 ppm, the lowest-observed-adverse-effect level (LOAEL) was more than 45 ppm, the NEL is less than 45 ppm and the NOAEL was not below 45 ppm.

For `NC(=O)N1C(=O)C(C(=O)c2ccc(F)s2)c2cc(F)c(Cl)cc21` (stereo not drawn), the LEL with primate [9] was 30 mg/kg/day; in the series on rat [10], 30 mg/kg/day; in the series on primate [11] it was 2 mg/kg/day; in the series with rat [12], 3 mg/kg/day; in the series on primate [13] (setting [26]) it was 1 mg/kg/day. Also, the LOAEL with primate [9] was more than 30 mg/kg/day; in the series on rat [10], more than 30 mg/kg/day; in the series on primate [11], more than 20 mg/kg/day; in the series on rat [12] it was more than 20 mg/kg/day; in the series with primate [13] (setting [25]) it was more than 10 mg/kg/day. Moreover, the NEL with primate [9] was less than 30 mg/kg/day; in the series on rat [10], 10 mg/kg/day; in the series on primate [11], less than 2 mg/kg/day; in the series with rat [12], less than 3 mg/kg/day; with primate [13] (setting [26]), less than 1 mg/kg/day. For the same compound, the NOAEL in the series on primate [9] is not below 30 mg/kg/day; in the series on rat [10], not below 30 mg/kg/day; with primate [11], not below 20 mg/kg/day; with rat [12], not below 20 mg/kg/day; in the series on primate [13] (setting [25]), not below 10 mg/kg/day.

`ClC1=C(Cl)C(Cl)(Cl)C(Cl)=C1Cl` [Hexachlorocyclopentadiene]: the LEL with rat [14] is 0.01 ppm; in the series on rat [15] (systemic / pathology microscopic / stomach / hyperplasia + systemic / pathology microscopic / stomach / inflammation), 19 mg/kg/day; with rat [16], 0.01 ppm; in the series with rabbit [17] (setting [28]), 75 mg/kg/day; with rabbit [17] (setting [29]), 75 mg/kg/day; with mouse [18] (setting [30]), 0.01 ppm. Besides, the LEL in the series on mouse [19] (setting [31]) turned out to be 19 mg/kg/day. Moreover, the LOAEL was more than 0.2 ppm with rat [14]; more than 150 mg/kg/day in the series on rat [15] (setting [27]); more than 0.2 ppm in the series on rat [16]; more than 75 mg/kg/day in the series with rabbit [17] (setting [28]); 75 mg/kg/day with rabbit [17] (setting [29]); 0.2 ppm in the series with mouse [18] (systemic / in life observation / body weight / body weight + systemic / pathology microscopic / nose / inflammation). Also, the LOAEL in the series with mouse [19] (setting [27]) was more than 300 mg/kg/day. Also, the NEL with rat [14] is less than 0.01 ppm; with rat [15] (setting [27]), 10 mg/kg/day; in the series on rat [16] it was less than 0.01 ppm; in the series with rabbit [17] (setting [28]) it was 25 mg/kg/day; in the series with rabbit [17] (setting [29]) it was 25 mg/kg/day; in the series on mouse [18] (setting [30]), less than 0.01 ppm. In addition, the NEL in the series with mouse [19] (setting [31]) is less than 19 mg/kg/day. The NOAEL is not below 0.2 ppm in the series on rat [14]; not below 150 mg/kg/day in the series on rat [15] (setting [27]); not below 0.2 ppm in the series on rat [16]; not below 75 mg/kg/day with rabbit [17] (setting [28]); 25 mg/kg/day with rabbit [17] (setting [29]); 0.05 ppm with mouse [18] (systemic / in life observation / body weight / body weight + systemic / pathology microscopic / nose / inflammation + systemic / pathology …). Besides, the NOAEL in the series on mouse [19] (setting [27]) is not below 300 mg/kg/day.
